The text below walks through data of patent publication US12290521B2, “Methods and materials for identifying and treating BET inhibitor-resistant cancers” (Mayo Foundation for Medical Education and Research, priority 2018, dated 2025).

Data set [1] relates to C4-2 cells. In words: Western blot and RT-qPCR of protein and mRNA expression in C4-2 cells. The class given is cell-based, human. The protocol: Cell lysates or immunoprecipitates were subjected to SDS-PAGE, and proteins were transferred to nitrocellulose membranes (GE Healthcare Sciences). The membranes were blocked in Tris-buffered saline (TBS, pH 7.4) containing 5% non-fat milk and 0.1% Tween-20, washed twice in TBS containing 0.1% Tween-20, and incubated with primary antibody overnight at 4° C., followed by secondary antibody for 1 hour at room temperature. The proteins of interest were visualized using ECL chemiluminescence system (Santa Cruz Biotechnology). Densitometry analysis of protein bands was analyzed on the Gel-Pro Analyzer software.
Total RNA was isolated from transiently transfected cells using the Trizol reagent (Thermo Fisher Scientific), and cDNA was reverse-transcribed using the Superscript RT kit (TOYOBO, Japan) according to the manufacturer's instructions. PCR amplification was performed using the SYBR Green PCR master mix Kit (TOYOBO, Japan). All quantization was normalized to the level of endogenous control GAPDH. The primer sequences for the SYBR green qPCR used were as follows: BRD2-F: 5′-[…]-3′ (SEQ ID NO:10); BRD2-R: 5′-[…]-3′ (SEQ ID NO:11); BRD3-F: 5′-[…]-3′ (SEQ ID NO:12); BRD3-R: 5′-[…]-[…]-3′ (SEQ ID NO:13); BRD4-F: 5′-[…]-GAG-3′ (SEQ ID NO:14); BRD4-F: 5′-[…]-3′ (SEQ ID NO: 15); RAC1-F: 5′-[…]-3′ (SEQ ID NO:16); RAC1-R: 5′-[…]-3′ (SEQ ID NO:17); FDFT1-F: 5′-ACTAT-[…]-3′ (SEQ ID NO:18); FDFT1-R: 5′-[…]-[…]-3′ (SEQ ID NO:19); DHCR24-F: 5′-[…]-GAGC-3′ (SEQ ID NO:20); DHCR24-R: 5′-[…]-3′(SEQ ID NO:21); DHCR7-F: 5′-[…]-3′ (SEQ ID NO: 22); DHCR7-R: 5′-[…]-3′ (SEQ ID NO:23); MVD-F: 5′-[…]-3′ (SEQ ID NO:24); MVD-R: 5′-CACAC-[…]-3′ (SEQ ID NO:25); PSA-F: 5′-[…]-[…]-3′ (SEQ ID NO:26); PSA-R: 5′-[…]-3′ (SEQ ID NO:27); TMPRSS2-F: 5′-[…]-3′ (SEQ ID NO: 28); TMPRSS2-R: 5′-[…]-3′ (SEQ ID NO:29); MYC-F: 5′-[…]-3′ (SEQ ID NO:30); MYC-R: 5′-CTTGT-[…]-3′ (SEQ ID NO:31); AR-F: 5′-[…]-TCACC-3′ (SEQ ID NO:32); AR-R: 5′-[…]-3′ (SEQ ID NO: 33); GAPDH-F: 5′-[…]-3′ (SEQ ID NO:34); and GAPDH-R: 5′-[…]-3′ (SEQ ID NO:35).
Cells were harvested and lysed by IP buffer (50 mM Tris-HCl, pH 7.4, 150 mM NaCl, 1% Triton X-100, 1% sodium deoxycholate and 1% protease inhibitor cocktails) on ice for more than 15 minutes. Cell lysate was centrifuged for 15 minutes at 13,000 rpm at 4° C., and the supernatant was quantified by BCA protein quantification assay. Equal amounts of protein sample were added into 4× sample buffer and boiled for 5 minutes. The sample was subjected to SDS-PAGE analysis and transferred to nitrocellulose membrane. The membrane was blocked by 5% milk for 1 hour at room temperature and incubated with primary antibody at 4° C. overnight. The next day, the membrane was washed three times with 1×TBST and incubated with horseradish peroxidase-conjugated secondary antibodies for 1 hour at room temperature. The protein bands were visualized by SuperSignal West Pico Stable Peroxide Solution (Thermo Fisher Scientific).
Total RNA was isolated using TRIzol reagent (Thermo Fisher Scientific). The NanoDrop 2000 spectrophotometer (Thermo Fisher Scientific) was used to assess RNA yield and quality. RNA was reversely transcribed using Superscript II reverse transcriptase (Thermo Fisher Scientific) following manufacturer's instructions. Quantitative real-time PCR was performed by mixing cDNA, gene-specific primers and IQ SYRB Green Supermix and detected by iCycler QTX detection system (Bio-Rad). The 2-ΔCt method was used to quantitate fold changes by normalizing to GAPDH.

The test system of data set [2] is C4-2 cells. In words: Cell proliferation assay (MTS) and trypan blue assay. The class given is cell-based, human. As to the method: CellTiter 96® AQueous One Solution Cell Proliferation Assay (MTS) (Promega) was used to measure cell growth according to the manufacturer's instructions. Briefly, cells were plated in 96-well plates at a density of 2,000 cells per well. At the indicated times, 20 μL of Cell Titer 96R Aqueous One Solution Reagent was added to medium. After incubating for 1 hour at 37° C. in the cell incubator, cell growth was measured in a microplate reader at 490 nm.
Trypan blue assay was performed to measure cell growth according to the manufacturer's instructions. Briefly, cells were plated in 6-well plates at a density of about 5×10^4 to about 1×10^5 cells per well. At the indicated time points, cells were trypsinized and suspended in 1 mL 1×PBS. 100 μL cells and 100 μL trypan blue solution (Sigma-Aldrich) were mixed, and the number of viable cells was measured using the Bio-Rad automated cell counter.
Cell proliferation was measured by using the MTS assay (Promega). Prostate cancer cells (2,000 per well) were seeded in 96-well plates with 100 μL of culture medium. Each well was added with 20 μL of CellTiter 96R AQueous One Solution Reagent (Promega) and absorbance was measured in a microplate reader at 490 nm.

For a further data set, the system named is DUB3. The conditions noted are these: Borbely et al., Oncotarget 2015; cited from earlier work.
The mark [3] stands for this setting: control and SPOP-F133V C4-2 cells, JQ1 1 μM, 24 hours.

“Also recorded” adds a separate entry of the source.

Turning to `Cc1sc2c(c1C)C(c1ccc(Cl)cc1)=N[C@@H](CC(=O)OC(C)(C)C)c1nnc(C)n1-2` [JQ1], in the data set with C4-2 cells [1] (C4-2 and 22Rv1 cells (JQ1 1 μM, 24 hours) and C4-2 tumors), the ERG expression entry is listed as “largely decreased”. Besides, in the data set with C4-2 cells [1] (C4-2 cells, JQ1), the BRD4 protein level entry is recorded as “increased”; the “DUB3 mRNA and protein levels” value was “opposite; also recorded: upregulation”. Further, the “NCOR2 protein and mRNA expression” value in the data set on C4-2 cells [1] (C4-2 cells, dose- and time-dependent) is given as “decreased”. Moreover, the “expression of cholesterol synthesis genes (FDFT1, DHCR24, DHCR7, MVD) and BRD4 binding at their promoters” value with C4-2 cells [1] (SPOP-F133V C4-2 cells, JQ1 1 μM, 24 hours) is listed as “not pronounced”. Moreover, in the data set on C4-2 cells [1] (control C4-2 cells, JQ1 1 μM, 24 hours), the “expression of cholesterol synthesis genes (FDFT1, DHCR24, DHCR7, MVD) and BRD4 binding at their promoters” value is listed as “largely inhibited”. In addition, in the data set with C4-2 cells [1] (setting [3]), the AR protein level entry is reported as “largely decreased”; the AR transcriptional activity result is given as “largely decreased”; the MYC protein expression result was “markedly decreased”; the “expression of receptor tyrosine kinases HER3, IGF1R and INSR” value is “no effect”. Also, in the data set with C4-2 cells [2] (BRD4 knockout C4-2 cells with BRD2/3 largely depleted, JQ1 up to 500 nM, 24 hours), the “sensitivity of cell growth to JQ1” value was “highly resistant”. Besides, the “sensitivity of cell growth to JQ1” value with C4-2 cells [2] (SPOP F133V-expressing C4-2 cells, JQ1 2 μM, MTS) is reported as “JQ1 resistance”. Besides, in the data set with C4-2 cells [2] (SPOP-F133V-expressing C4-2 cells, JQ1 0.25 μM every other day), the “effect on cell growth” value is on record as “largely impeded”. Further, the “effect on cell growth” value in the data set with C4-2 cells [2] (SPOP-knockdown C4-2 cells, JQ1 0.25 μM every other day) was “largely attenuated”. For the same compound, the cell growth entry with C4-2 cells [2] (control (shC / EV) C4-2 cells, JQ1 0.25 μM every other day) is recorded as “robustly inhibited; also recorded: inhibited growth”. In addition, the “DUB3 mRNA level” value with DUB3 is reported as “rapid upregulation”.
